Laboratory results: patent US9896423B2, “Deuterium substituted 1-[2-(2,4-dimethyl-phenylsulfanyl)-phenyl]piperazine compound or derivatives thereof, and pharmaceutical composition and use thereof” (Jiangsu Jibeier Pharmaceutical Co. Ltd., priority 2014, dated 2018)
Where “and” joins values, the source holds several entries; their conditions need not be identical. Identical values can stand only once. Counter-ions that a name gives are not always drawn. Like-named read-outs stand apart in the source and are kept apart here.

Assays:
Male SD rats = test: Rats swimming test; assay type: in vivo; details: for effect on length of time that the rats stopped swimming vs blank control: 14 days; for Duration without Move within 5 min: rats swimming, gavage 14 days, n = 10, x ± s
Source text: The following method is used for testing the antidepression effect of the compound of the present application. ICR mice or SD rats, gavaged for two successive weeks, were subjected to mice swimming test, mice tail suspension test and rats swimming test. See below for details of the tests and results.
Male SD rats weighing 200 to 220 g were used and they were fed with sterilized standard feed. The medicaments were the same as those in the mice tail suspension test, but the dosage administered to rats was half of that to mice.
Drug solution preparation: Since the dosage applied on rats was 1 ml/100 g body weight, the medicament solutions used in this test had the same concentrations as those used on mice.
The apparatus was the same as that in the […].
The rats were fasted for 4 hours, put in a round glass tank (ø 18 cm×h 40 cm, with water of 15 cm depth and at a temperature of 25° C.), and were allowed to swim for 15 min. One tank accommodated one rat at a time. The tank was refilled with clean water for another rat after one rat finished swimming. The rats were dried with a hot-air blower after swimming.
The forty rats were divided into 4 groups, each of which has 10 rats, according to the Excel random grouping.
The medicaments were correspondingly administered 1 ml/100 g body weight by gavage, once a day, to the animals in each test group for 14 successive days. The rat swimming test was performed one hour later after the last administration.
The data was given as “average±standard deviation” (x±s). One-way analysis of variance (ANOVA) was used for data difference statistics. Differences among the groups were determined by P<0.05.

[1] = Pharmacokinetic test in rats, intravenous injection; assay type: in vivo, SD rats; details: for Concentrations in Plasma of Rats after Intravenous Injection / concentration at 0.05 h / concentration at 0.133 h / concentration at 4 h / concentration at 6 h / concentration at 9 h / concentration at 12 h / concentration at 24 h: 2 mg/kg iv; for concentration at 0.05 h / concentration at 0.133 h / concentration at 4 h / concentration at 6 h / concentration at 9 h / concentration at 12 h / concentration at 24 h: intravenous
Protocol: The preferred compound of the present disclosure was assessed in rats for its pharmacokinetic profile.
SD rats, male and female, weighing 150 to 250 g
Mobile phase: 10 mM ammonium formate aqueous solution:methanol=15:85
The ionization source was electrospray ionization source. The detection mode was positive mode. Multiple reaction monitoring (MRM) was used as the scanning mode. The ion reaction for the quantitative analysis was the following: m/z was 305.2\150.0 for XX, and 256.1\167.1 for diphenhydramine (the internal standard).
Four male SD rats were taken. The dosage was calculated as 5 mL/kg body weight and 2 mg/kg. XX or YY was dissolved in DMSO (3% of a total volume) and castor oil (3% of the total volume) was added to the solution, followed by agitating with a vortex mixer. Subsequently, saline was added to the mixture to the total volume to afford the intravenous injection for the rats. The injections were intravenously administered to four male SD rats. Blood from the rats' orbits was collected 3 min, 8 min, 15 min, 30 min, 1 hr, 2 hr, 3 hr, 4 hr, 6 hr, 9 hr, 12 hr and 24 hr later after the injection, respectively.
After the blood collection, the tubes were immediately gently turned upside down at least five times to ensure sufficient mixing, and placed on ice. Heparin was added for anticoagulation. The samples were centrifuged at 8000 rpm for 5 min to separate serum from erythrocyte. The serum was transferred with a pipettor to 2 mL polypropylene (PP) tubes, which were marked with the name of the compound and the time points, and stored in a refrigerator at −40° C. before LC-MS analysis. Samples with high concentrations were diluted with rat blank plasma.
2.5 μL of Meth-H2O and 5 μL of the internal standard solution (20 ng/mL, IS) were added to 50 μL of the plasma. Subsequently, 150 μL of methanol was added to the mixture to precipitate protein and the samples were then centrifuged at 13000 rpm for 5 min. The upper organic phase was taken out, filtrated with a 0.22 μM microporous membrane, and 2 μL of the sample was injected for the LC-MS analysis.

## [2H]C([2H])([2H])c1ccc(Sc2ccccc2N2CCNCC2)c(C([2H])([2H])[2H])c1 [XX, 1-{2-[2,4-bis(trideuteriomethyl)phenylsulfanyl]phenyl}piperazine hydrobromic acid salt]
Male SD rats; 0.75 mg/kg gavage
  effect on length of time that the rats stopped swimming vs blank control: showed a tendency to shorten
Male SD rats; 1.5 mg/kg gavage
  effect on length of time that the rats stopped swimming vs blank control: markedly shortened
Male SD rats; 0.75 mg/kg
  Duration without Move within 5 min: 242.4 ± 43.2 s
Male SD rats; 1.5 mg/kg
  Duration without Move within 5 min: 226.2 ± 43.2 s
[1]; 0.05 h after administration, individual rats
  Concentrations in Plasma of Rats after Intravenous Injection: 123.2 ng/mL and 127.2 ng/mL and 121.4 ng/mL
[1]; 0.133 h, individual rats
  Concentrations in Plasma of Rats after Intravenous Injection: 89.0 ng/mL and 85.9 ng/mL and 86.8 ng/mL
[1]; 0.25 h, individual rats
  Concentrations in Plasma of Rats after Intravenous Injection: 78.8 ng/mL and 77.3 ng/mL and 77.1 ng/mL
[1]; 0.5 h, individual rats
  Concentrations in Plasma of Rats after Intravenous Injection: 76.9 ng/mL and 71.3 ng/mL and 75.8 ng/mL
[1]; 1 h, individual rats
  Concentrations in Plasma of Rats after Intravenous Injection: 73.3 ng/mL and 68.6 ng/mL and 65.6 ng/mL
[1]; 2 h, individual rats
  Concentrations in Plasma of Rats after Intravenous Injection: 69.5 ng/mL and 68.1 ng/mL and 54.4 ng/mL
[1]; 3 h, individual rats
  Concentrations in Plasma of Rats after Intravenous Injection: 53.4 ng/mL and 49.8 ng/mL and 38.2 ng/mL
[1]; 4 h, individual rats
  Concentrations in Plasma of Rats after Intravenous Injection: 38.5 ng/mL and 27.6 ng/mL and 25.1 ng/mL
[1]; 6 h, individual rats
  Concentrations in Plasma of Rats after Intravenous Injection: 28.4 ng/mL and 25.8 ng/mL and 24.5 ng/mL
[1]; 9 h, individual rats
  Concentrations in Plasma of Rats after Intravenous Injection: 16.1 ng/mL and 18.6 ng/mL and 14.1 ng/mL
[1]; 12 h, individual rats
  Concentrations in Plasma of Rats after Intravenous Injection: 7.86 ng/mL and 7.50 ng/mL and 7.18 ng/mL
[1]; 24 h, individual rats
  Concentrations in Plasma of Rats after Intravenous Injection: 2.57 ng/mL and 2.89 ng/mL and 3.68 ng/mL
[1]; male, SD, rat, plasma, 2 mg/kg, 0.05 h, mean, read-out: Concentrations in Plasma of Rats after Intravenous Injection, Mean ± SD
  concentration at 0.05 h: 126 ± 5.68 ng/mL
[1]; male, SD, rat, plasma, 2 mg/kg, 0.05 h after administration, individual rats, read-out: Concentrations in Plasma of Rats after Intravenous Injection
  concentration at 0.05 h: 134 ng/mL
[1]; male, SD, rat, plasma, 2 mg/kg, 0.133 h, individual rats, read-out: Concentrations in Plasma of Rats after Intravenous Injection
  concentration at 0.133 h: 86.5 ng/mL
[1]; male, SD, rat, plasma, 2 mg/kg, 0.133 h, mean, read-out: Concentrations in Plasma of Rats after Intravenous Injection, Mean ± SD
  concentration at 0.133 h: 87.1 ± 1.35 ng/mL
[1]; male, SD, rat, plasma, 2 mg/kg, 4 h, individual rats, read-out: Concentrations in Plasma of Rats after Intravenous Injection
  concentration at 4 h: 27.2 ng/mL
[1]; male, SD, rat, plasma, 2 mg/kg, 4 h, mean, read-out: Concentrations in Plasma of Rats after Intravenous Injection, Mean ± SD
  concentration at 4 h: 29.6 ± 6.03 ng/mL
[1]; male, SD, rat, plasma, 2 mg/kg, 6 h, individual rats, read-out: Concentrations in Plasma of Rats after Intravenous Injection
  concentration at 6 h: 25.8 ng/mL
[1]; male, SD, rat, plasma, 2 mg/kg, 6 h, mean, read-out: Concentrations in Plasma of Rats after Intravenous Injection, Mean ± SD
  concentration at 6 h: 26.1 ± 1.64 ng/mL
[1]; male, SD, rat, plasma, 2 mg/kg, 9 h, individual rats, read-out: Concentrations in Plasma of Rats after Intravenous Injection
  concentration at 9 h: 14.9 ng/mL
[1]; male, SD, rat, plasma, 2 mg/kg, 9 h, mean, read-out: Concentrations in Plasma of Rats after Intravenous Injection, Mean ± SD
  concentration at 9 h: 15.9 ± 1.96 ng/mL
[1]; male, SD, rat, plasma, 2 mg/kg, 12 h, individual rats, read-out: Concentrations in Plasma of Rats after Intravenous Injection
  concentration at 12 h: 8.44 ng/mL
[1]; male, SD, rat, plasma, 2 mg/kg, 12 h, mean, read-out: Concentrations in Plasma of Rats after Intravenous Injection, Mean ± SD
  concentration at 12 h: 7.75 ± 0.54 ng/mL
[1]; male, SD, rat, plasma, 2 mg/kg, 24 h, individual rats, read-out: Concentrations in Plasma of Rats after Intravenous Injection
  concentration at 24 h: 3.38 ng/mL
[1]; male, SD, rat, plasma, 2 mg/kg, 24 h, mean, read-out: Concentrations in Plasma of Rats after Intravenous Injection, Mean ± SD
  concentration at 24 h: 3.13 ± 0.5 ng/mL
[1]; male, SD, rat, plasma, iv, 2 mg/kg, rats, iv 2 mg/kg, XX n = 4, YY n = 3, read-out: AUC0-∞, Mean ± SD
  AUC(0-inf): 482 ± 23.6 ng·h/mL
[1]; male, SD, rat, plasma, iv, 2 mg/kg, rats, iv 2 mg/kg, XX n = 4, YY n = 3, read-out: Cmax, Mean ± SD
  Cmax: 126 ± 5.68 ng/mL
